{"source": "patent US20260199343A1", "about": "(Kadmon Corporation, LLC, priority 2022, published 2026)", "key": {"[1]": {"tested_on": "MM cell lines (LP1, MM1R, MM1S, OPM2)", "test": "CellTiter-Glo cell viability, panel of MM cell lines", "format": "cell-based, human", "conditions": "8 days treatment", "protocol": "Cell viability was measured by CellTiter-Glo, Luminescent Cell Viability Assay normalized with DMSO."}, "C-myc protein": {"tested_on": "C-myc protein", "test": "Western blot of C-Myc in LP1 cells", "format": "cell-based, human", "conditions": "24 hours of treatment"}, "[2]": {"conditions": "cited from earlier work"}, "MM1S cells": {"tested_on": "MM1S cells", "test": "Growth inhibition of MM1S cells (CellTiterGlo / Incucyte confluency)", "format": "cell-based, human", "conditions": "5-6 days", "protocol": "(§1) On Day 1, the cells were plated at 3,000 cells per well (50 ul) using 384w plate (Costar, 3765) pre-coated with Poly-D-Lysine, spun down at 300 g for 1 min at room temperature and transferred in Incucyte S3 (37° C.; 5% CO2; every 2 h kinetic read). […] Cells were further incubated in Incucyte S3 (Sartorius) for an additional 5-6 days at 37° C., 5% CO2 with the same kinetic readings. At the end, proliferation was measured by added CellTiterGlo (Promega) to assess cell viability or by using Incucyte measuring cell confluency over time. Cell growth was normalized to DMSO (100%) and staurosporine (Sigma; […]) 1 uM (0%))."}, "LP-1 cells": {"tested_on": "LP-1 cells", "test": "Growth inhibition of LP-1 cells (CellTiterGlo / Incucyte confluency)", "format": "cell-based, human", "conditions": "LP1, 5-6 days", "protocol": "as §1"}, "[3]": {"conditions": "cited from earlier work", "remark": "listed apart in the source"}, "MOLP-8": {"tested_on": "MOLP-8", "test": "MOLP-8 viability, belumosudil vs Y27632 (Example 5)", "format": "cell-based, human", "conditions": "10-40 μM (belumosudil effect starting at 10 μM), after 4 days of treatment", "protocol": "MOLP-8 (DSMZ, #ACC569) were maintained in RPMI1640 complete medium (RPMI1640 supplemented with 20% FBS—Eurobio #CVFSVF06-01 and 1% L-glutamine—Gibco #25030-081), incubated at 37° C. with 5% CO2 before being used.\n(§2) Before treatment, MM cells were centrifuged for 5 minutes at 300 g, counted, and resuspended in RPMI1640 complete medium to have 50000 cells/100 μl.\n(§3) Compounds and cells were then added to the appropriate wells of a Corning™ 96-Well Clear Ultra Low Attachment Microplate (Corning, #7007) (final volume of each well: 200 μl). […] MOLP-8 or LP-1 or RPMI-8226 or HD NK cells (50000 cells/well) were then added to the appropriate wells. The plate was then centrifuged for 1 minute at 100 g before being placed into an incubator at 37° C. with 5% CO2 for up to 4 days.\nAfter treatment, cells were collected and added to U bottom plates for antibody labelling. […]\n(§4) To additionally assess cell viability, DAPI (Miltenyi Biotec, #130-111-570) was added in each well before plate reading by flow cytometry. Samples were then analyzed with the MACSQuant 16 flow cytometer (Miltenyi Biotec).\n(§5) Data were analyzed with FlowJo software as shown in FIG. 3: (FIG. 3A) MOLP-8 cells excluding debris was gated, followed by gating for single cells (FIG. 3B). From the single cells, viable DAPI^neg cells were quantified (FIG. 3C)."}, "RPMI-8226": {"tested_on": "RPMI-8226", "test": "RPMI-8226 viability, belumosudil vs Y27632 (Example 5)", "format": "cell-based, human", "conditions": "10-40 μM (belumosudil effect starting at 10 μM), after 4 days of treatment", "protocol": "RPMI-8226 (ATCC, #CCL155) were maintained in RPMI1640 complete medium, incubated at 37° C. with 5% CO2 before being used.\nas §2, §3\nAfter treatment, cells were collected and added to U bottom plates for antibody labelling.\nThen, cells were centrifuged for 5 minutes at 300 g, the supernatant removed and 200 μl of AutoMACS Running buffer (Miltenyi Biotec, #130-091-221) added to each well. […]\nas §4, §5"}, "HD NK cells": {"tested_on": "HD NK cells", "test": "HD NK cell viability, belumosudil vs Y27632 (Example 5)", "format": "cell-based, human", "conditions": "10-40 μM, after 4 days of treatment", "text": "(§6) Healthy donor buffy coats were supplied by EFS Ile de France. Immediately after reception, the qualified buffy coats were put under gentle agitation overnight at room temperature. The following day, peripheral blood mononuclear cells (PBMCs) were isolated by Ficoll (Cytiva #17-1440-02) density gradient centrifugation. Human NK cells were purified from PBMCs with the MACSXpress Whole Blood NK cell isolation kit from Miltenyi Biotec (#130-127-695) by negative selection using manual magnetic labelling and the MACSxpress separator (Miltenyi Biotec #130-098-308). Then, purified NK cells were cultured in RPMI1640 medium supplemented with 10% foetal bovine serum (FBS) (Eurobio #CVFSVF06-01) and 1% of L-Glutamine (Gibco #25030-081). The cells were left to rest overnight at 37° C. with 5% CO2 before being used. […]\nas §4, §5"}, "[4]": {"test": "HD NK cell viability by DAPI flow cytometry (Example 2)", "format": "cell-based", "conditions": "human, healthy donor (HD) NK cells purified from PBMCs; high concentrations 25-40 μM, after 4 days of treatment; read-out: reduction of HD NK cells viability", "text": "as §6, with “fetal” for “foetal”, “#25030-081).” for “#25030-081). The cells were left to rest overnight at 37° C. with 5% CO2 before being used.”\nTo additionally assess cell viability, DAPI (Miltenyi Biotec, #130-111-570) was added in each well before plate reading by flow cytometry. Samples were then analyzed with the MACSQuant 16 flow cytometer (Miltenyi Biotec). Data were analyzed with FlowJo software using the following strategy shown in FIGS. 3A-3D: (A) MOLP-8 cells excluding debris were gated, followed by gating for single cells (B), from single cells, viable DAPI^neg cells were quantified (C), and from DAPI^neg cells, the expression of CD38 was quantified with FITC fluorochrome (D) and expressed as median of fluorescence intensity (MFI)."}, "CD38": {"tested_on": "CD38", "conditions": "bone marrow and MM cells of patients after first treatment; cited from earlier work"}}, "note": "Counter-ions that a name gives are not always drawn."}
{"compound": "Nc1cccc2c1C(=O)N(C1CCC(=O)NC1=O)C2=O", "note": "(racemic) [pomalidomide, (RS)-4-Amino-2-(2,6-dioxo-piperidin-3-yl)-isoindoline-1,3-dione]", "values": [{"measurement": "growth inhibition of MM cell lines", "setting": "[1]", "result": "growth inhibition in all of these MM cell lines except LP1"}, {"measurement": "C-myc protein level", "setting": "C-myc protein", "result": "very moderate effect"}, {"measurement": "solubility in all pH solutions", "setting": "[2]; all pH solutions", "result": "about 0.01 mg/mL"}, {"measurement": "solubility into organic solvents", "setting": "[2]; organic solvents", "result": "limited to low solubility"}]}
{"compound": "CC(C)NC(=O)COc1cccc(-c2nc(Nc3ccc4[nH]ncc4c3)c3ccccc3n2)c1", "note": "[Belumosudil mesylate, 2-{3-[4-(1H-indazol-5-ylamino)-2-quinazolinyl]phenoxy}-N-(propan-2-yl) acetamide methanesulfonate (1:1)]", "values": [{"measurement": "solubility in water", "setting": "[2]", "result": "practically insoluble in water"}]}
{"compound": "C[C@@H]1C[C@H]2[C@@H]3CCC4=CC(=O)C=C[C@]4(C)[C@@]3(F)[C@@H](O)C[C@]2(C)[C@@]1(O)C(=O)CO", "note": "[Dexamethasone, 9-fluoro-11β,17,21-trihydroxy-16α-methylpregna-1,4-diene-3,20-dione]", "values": [{"measurement": "growth inhibition, single agent", "setting": "MM1S cells", "result": "single agent growth inhibition activity"}, {"measurement": "growth inhibition, single agent", "setting": "LP-1 cells", "result": "single agent growth inhibition activity"}, {"measurement": "solubility in water", "setting": "[2]", "result": "practically insoluble in water"}, {"measurement": "stability in air", "setting": "[3]", "result": "stable in air"}]}
{"compound": "C[C@@H](N)[C@H]1CC[C@H](C(=O)Nc2ccncc2)CC1", "note": "[Y27632]", "values": [{"measurement": "viability of MOLP-8 (number of cells and % of live cells)", "setting": "MOLP-8", "result": "does not impact viability"}, {"measurement": "viability of RPMI-8226 (number of cells and % of live cells)", "setting": "RPMI-8226", "result": "does not impact viability"}, {"measurement": "HD NK cell viability", "setting": "HD NK cells", "result": "neither belumosudil nor Y27632 impact HD NK cell viability"}]}
{"compound": "CC(C)NC(=O)COc1cccc(-c2nc(Nc3ccc4[nH]ncc4c3)c3ccccc3n2)c1", "note": "[belumosudil, 2-{3-[4-(1H-indazol-5-ylamino)-2-quinazolinyl]phenoxy}-N-(propan-2-yl) acetamide]", "values": [{"measurement": "IC50", "setting": "[1]; Homo sapiens, 192 h, LP1, MM1R, MM1S, OPM2, normalized with DMSO, read-out: IC50 of MM cell line growth inhibition", "result": "1 to 7", "unit": "µM"}, {"measurement": "cytotoxicity at 4 days", "setting": "[4]", "result": "≤ 10", "unit": "%"}]}
{"compound": "daratumumab: anti-CD38 antibody", "values": [{"measurement": "CD38 expression", "setting": "CD38", "result": "reduced"}]}
